Assay results: PubChem BioAssay (NCI)
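These data come from cells grown in 96-well plates and exposed to compound for 48 hours at five concentrations. GI50: concentration for 50% inhibition of growth. Definition used: TGI = concentration required for complete inhibition of growth.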

Columns and labels:
Experiment in all cases: inhibition of tumour cell growth, NCI panel, 48 h
UACC-62 melanoma = system: UACC-62 melanoma
OVCAR-3 ovarian = system: OVCAR-3 ovarian
LOX IMVI melanoma = system: LOX IMVI melanoma
NCI-H23 lung = system: NCI-H23 lung
PC-3 prostate = system: PC-3 prostate
MDA-MB-231 breast = system: MDA-MB-231 breast
DU-145 prostate = system: DU-145 prostate
HCT-15 colon = system: HCT-15 colon
MDA-MB-435 = system: MDA-MB-435
SF-268 CNS = system: SF-268 CNS
HOP-62 NSCLC = system: HOP-62 NSCLC
RPMI-8226 leukemia = system: RPMI-8226 leukemia
NCI-H460 lung = system: NCI-H460 lung
OVCAR-4 ovarian = system: OVCAR-4 ovarian
SK-MEL-5 melanoma = system: SK-MEL-5 melanoma
SW-620 colon = system: SW-620 colon
MCF7 breast = system: MCF7 breast
KM12 colon = system: KM12 colon
T-47D breast = system: T-47D breast
HCC-2998 colon = system: HCC-2998 colon
CAKI-1 renal = system: CAKI-1 renal
HL-60(TB) leukemia = system: HL-60(TB) leukemia
ACHN renal = system: ACHN renal
NCI/ADR-RES ovarian = system: NCI/ADR-RES ovarian
HCT-116 colon = system: HCT-116 colon
COLO 205 colon = system: COLO 205 colon
786-0 renal = system: 786-0 renal
SF-295 CNS = system: SF-295 CNS
NCI-H226 lung = system: NCI-H226 lung
NCI-H522 lung = system: NCI-H522 lung
HT29 colon = system: HT29 colon
IGROV1 ovarian = system: IGROV1 ovarian
U251 CNS = system: U251 CNS
SF-539 CNS = system: SF-539 CNS
K-562 leukemia = system: K-562 leukemia
SN12C renal = system: SN12C renal
UACC-257 melanoma = system: UACC-257 melanoma
MOLT-4 leukemia = system: MOLT-4 leukemia
CCRF-CEM leukemia = system: CCRF-CEM leukemia
M14 melanoma = system: M14 melanoma
OVCAR-5 ovarian = system: OVCAR-5 ovarian
EKVX NSCLC = system: EKVX NSCLC
TK-10 renal = system: TK-10 renal
A549 NSCLC = system: A549 NSCLC
SK-MEL-28 melanoma = system: SK-MEL-28 melanoma
SK-OV-3 ovarian = system: SK-OV-3 ovarian
BT-549 breast = system: BT-549 breast
SNB-75 CNS = system: SNB-75 CNS
A498 renal = system: A498 renal
MALME-3M melanoma = system: MALME-3M melanoma
SNB-19 CNS = system: SNB-19 CNS
OVCAR-8 ovarian = system: OVCAR-8 ovarian
HS 578T breast = system: HS 578T breast
SK-MEL-2 melanoma = system: SK-MEL-2 melanoma
RXF 393 renal = system: RXF 393 renal
SR leukemia = system: SR leukemia
HOP-92 NSCLC = system: HOP-92 NSCLC
UO-31 renal = system: UO-31 renal

In the case of `Cc1cc2c(cc1Cl)SC(NNC(=O)c1ccccc1)=NS2(=O)=O`, the TGI (UACC-62 melanoma) is reported as greater than 10 µM, the TGI (OVCAR-3 ovarian) is reported as greater than 10 µM and the TGI (LOX IMVI melanoma) is reported as greater than 10 µM. It also gave a TGI (NCI-H23 lung) greater than 10 µM, a TGI (PC-3 prostate) greater than 10 µM and a TGI (MDA-MB-231 breast) greater than 10 µM. It also gave a TGI (DU-145 prostate) greater than 10 µM, a TGI (HCT-15 colon) greater than 10 µM and a TGI (MDA-MB-435) greater than 10 µM. The TGI (SF-268 CNS) was greater than 10 µM, the TGI (HOP-62 NSCLC) was greater than 10 µM and the TGI (RPMI-8226 leukemia) was greater than 10 µM. It also gave a TGI (NCI-H460 lung) greater than 10 µM, a TGI (OVCAR-4 ovarian) greater than 10 µM and a TGI (SK-MEL-5 melanoma) greater than 10 µM. For the same compound, the TGI (SW-620 colon) was greater than 10 µM, the TGI (MCF7 breast) was 5.76 µM and the TGI (KM12 colon) was greater than 10 µM. The TGI (T-47D breast) was greater than 10 µM, the TGI (HCC-2998 colon) was greater than 10 µM and the TGI (CAKI-1 renal) was greater than 10 µM. It also gave a TGI (HL-60(TB) leukemia) greater than 10 µM, a TGI (ACHN renal) greater than 10 µM and a TGI (NCI/ADR-RES ovarian) greater than 10 µM. The TGI (HCT-116 colon) was greater than 10 µM, the TGI (COLO 205 colon) was greater than 10 µM and the TGI (786-0 renal) was greater than 10 µM. The TGI (SF-295 CNS) was greater than 10 µM, the TGI (NCI-H226 lung) was greater than 10 µM and the TGI (NCI-H522 lung) was greater than 10 µM. For the same compound, the TGI (HT29 colon) was greater than 10 µM, the TGI (IGROV1 ovarian) was greater than 10 µM and the TGI (U251 CNS) was greater than 10 µM. The TGI (SF-539 CNS) was greater than 10 µM, the TGI (K-562 leukemia) was greater than 10 µM and the TGI (SN12C renal) was greater than 10 µM. The TGI (UACC-257 melanoma) was greater than 10 µM, the TGI (MOLT-4 leukemia) was greater than 10 µM and the TGI (CCRF-CEM leukemia) was greater than 10 µM. For the same compound, the TGI (M14 melanoma) was greater than 10 µM, the TGI (OVCAR-5 ovarian) was greater than 10 µM and the TGI (EKVX NSCLC) was greater than 10 µM. The TGI (TK-10 renal) was greater than 10 µM, the TGI (A549 NSCLC) was greater than 10 µM and the TGI (SK-MEL-28 melanoma) was greater than 10 µM. The TGI (SK-OV-3 ovarian) was greater than 10 µM, the TGI (BT-549 breast) was greater than 10 µM and the TGI (SNB-75 CNS) was greater than 10 µM. It also gave a TGI (A498 renal) greater than 10 µM, a TGI (MALME-3M melanoma) greater than 10 µM and a TGI (SNB-19 CNS) greater than 10 µM. For the same compound, the TGI (OVCAR-8 ovarian) was greater than 10 µM, the TGI (HS 578T breast) was greater than 10 µM and the TGI (SK-MEL-2 melanoma) was greater than 10 µM. The TGI (RXF 393 renal) was greater than 10 µM.
`Cc1cc(NS(=O)(=O)c2ccc(-c3cnc(C4CC4)o3)cc2)ccc1Cl` was tested, and the GI50 (UACC-62 melanoma) was 0.117 µM, the TGI (UACC-62 melanoma) was 12.3 µM and the GI50 (OVCAR-3 ovarian) was 0.0745 µM. The TGI (OVCAR-3 ovarian) was 11.4 µM, the GI50 (LOX IMVI melanoma) was 0.386 µM and the TGI (LOX IMVI melanoma) was 14 µM. It also gave a GI50 (SR leukemia) of 0.0919 µM, a TGI (SR leukemia) of 45.6 µM and a GI50 (NCI-H23 lung) of 0.57 µM. For the same compound, the TGI (NCI-H23 lung) was 15.6 µM, the GI50 (PC-3 prostate) was 0.272 µM and the TGI (PC-3 prostate) was 15.3 µM. It also gave a GI50 (MDA-MB-231 breast) of 0.794 µM, a TGI (MDA-MB-231 breast) of 12.2 µM and a GI50 (DU-145 prostate) of 0.455 µM. For the same compound, the TGI (DU-145 prostate) was 15.1 µM, the GI50 (HCT-15 colon) was 0.116 µM and the TGI (HCT-15 colon) was 12.7 µM. The GI50 (SF-268 CNS) was 2.19 µM, the TGI (SF-268 CNS) was 19.9 µM and the GI50 (HOP-62 NSCLC) was 0.313 µM. For the same compound, the TGI (HOP-62 NSCLC) was 17 µM, the GI50 (HOP-92 NSCLC) was 0.472 µM and the TGI (HOP-92 NSCLC) was 10.1 µM. The GI50 (RPMI-8226 leukemia) was 0.329 µM, the TGI (RPMI-8226 leukemia) was greater than 52.1 µM and the GI50 (NCI-H460 lung) was 0.297 µM. It also gave a TGI (NCI-H460 lung) of 11.1 µM, a GI50 (OVCAR-4 ovarian) of 1.86 µM and a TGI (OVCAR-4 ovarian) of 19.5 µM. For the same compound, the GI50 (SK-MEL-5 melanoma) was 0.253 µM, the TGI (SK-MEL-5 melanoma) was 11.5 µM and the GI50 (SW-620 colon) was 0.13 µM. For the same compound, the TGI (SW-620 colon) was 15 µM, the GI50 (MCF7 breast) was 0.0708 µM and the TGI (MCF7 breast) was 12.2 µM. For the same compound, the GI50 (KM12 colon) was 0.187 µM, the TGI (KM12 colon) was 13.4 µM and the GI50 (T-47D breast) was 0.323 µM. For the same compound, the TGI (T-47D breast) was 23.3 µM, the GI50 (HCC-2998 colon) was 1.23 µM and the TGI (HCC-2998 colon) was 11.7 µM. For the same compound, the GI50 (CAKI-1 renal) was 0.0908 µM, the TGI (CAKI-1 renal) was 15.5 µM and the GI50 (HL-60(TB) leukemia) was 0.232 µM. For the same compound, the TGI (HL-60(TB) leukemia) was 1.23 µM, the GI50 (ACHN renal) was 0.586 µM and the TGI (ACHN renal) was 14.6 µM. The GI50 (UO-31 renal) was 0.835 µM, the TGI (UO-31 renal) was 12.5 µM and the GI50 (NCI/ADR-RES ovarian) was 0.181 µM. It also gave a TGI (NCI/ADR-RES ovarian) of 12.5 µM, a GI50 (HCT-116 colon) of 0.264 µM and a TGI (HCT-116 colon) of 13.4 µM. It also gave a GI50 (COLO 205 colon) of 0.305 µM, a TGI (COLO 205 colon) of 5.8 µM and a GI50 (786-0 renal) of 0.605 µM. For the same compound, the TGI (786-0 renal) was 17.8 µM, the GI50 (SF-295 CNS) was 0.0995 µM and the TGI (SF-295 CNS) was 2.57 µM. The GI50 (NCI-H226 lung) was 0.985 µM, the TGI (NCI-H226 lung) was 17.5 µM and the GI50 (NCI-H522 lung) was 0.0761 µM. The TGI (NCI-H522 lung) was 3.38 µM, the GI50 (HT29 colon) was 0.191 µM and the TGI (HT29 colon) was 3.89 µM. It also gave a GI50 (IGROV1 ovarian) of 0.335 µM, a TGI (IGROV1 ovarian) of 13 µM and a GI50 (U251 CNS) of 0.368 µM. The TGI (U251 CNS) was 14.9 µM, the GI50 (SF-539 CNS) was 0.281 µM and the TGI (SF-539 CNS) was 4.09 µM. The GI50 (K-562 leukemia) was 0.0567 µM, the TGI (K-562 leukemia) was greater than 100 µM and the GI50 (SN12C renal) was 0.961 µM. For the same compound, the TGI (SN12C renal) was 13.9 µM, the GI50 (UACC-257 melanoma) was 1.77 µM and the TGI (UACC-257 melanoma) was 18.2 µM. The GI50 (MOLT-4 leukemia) was 0.525 µM, the TGI (MOLT-4 leukemia) was 46.8 µM and the GI50 (CCRF-CEM leukemia) was 0.274 µM. For the same compound, the TGI (CCRF-CEM leukemia) was greater than 41.1 µM, the GI50 (M14 melanoma) was 0.192 µM and the TGI (M14 melanoma) was 15.9 µM. It also gave a GI50 (OVCAR-5 ovarian) of 0.748 µM, a TGI (OVCAR-5 ovarian) of 15 µM and a GI50 (EKVX NSCLC) of 0.557 µM. The TGI (EKVX NSCLC) was 17.1 µM, the GI50 (TK-10 renal) was 1.11 µM and the TGI (TK-10 renal) was 16 µM. It also gave a GI50 (A549 NSCLC) of 0.437 µM, a TGI (A549 NSCLC) of 14.9 µM and a GI50 (SK-MEL-28 melanoma) of 2.87 µM. It also gave a TGI (SK-MEL-28 melanoma) of 20 µM, a GI50 (SK-OV-3 ovarian) of 0.868 µM and a TGI (SK-OV-3 ovarian) of 20.8 µM. The GI50 (BT-549 breast) was 1.06 µM, the TGI (BT-549 breast) was 16.6 µM and the GI50 (SNB-75 CNS) was 0.12 µM. It also gave a TGI (SNB-75 CNS) of 0.643 µM, a GI50 (A498 renal) of 0.0828 µM and a TGI (A498 renal) of 0.676 µM. It also gave a GI50 (MALME-3M melanoma) of 12.1 µM, a TGI (MALME-3M melanoma) of 26.5 µM and a GI50 (SNB-19 CNS) of 0.362 µM. The TGI (SNB-19 CNS) was 16.3 µM, the GI50 (OVCAR-8 ovarian) was 0.552 µM and the TGI (OVCAR-8 ovarian) was 17.7 µM. For the same compound, the GI50 (HS 578T breast) was 0.233 µM, the TGI (HS 578T breast) was 11.5 µM and the GI50 (SK-MEL-2 melanoma) was 0.445 µM. The TGI (SK-MEL-2 melanoma) was 20.3 µM, the GI50 (RXF 393 renal) was 0.173 µM and the TGI (RXF 393 renal) was 3.13 µM.
